Measured values taken from publication PMC6934184, “Selective DNA-PKcs inhibition extends the therapeutic index of localized radiotherapy and chemotherapy” (The Journal of Clinical Investigation, 2019).

Molecular target: T1, HCK (Homo sapiens, UniProt P08631)
T1 construct: purchased Thermo Fisher Scientific (Life Technologies) SelectScreen
Experiment: SelectScreen Z'LYTE
Assay type: biochemical
In short: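 Compound tested in SelectScreen activity assays, Z'LYTE for CSF1R, CDK1/cyclin B and MAP2K6 and Adapta for CAMK1. ATP for CAMK1 was listed as 10, and Km app was used for CSF1R. Results are expressed in percent.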

T1 sequence (P08631 whole entry): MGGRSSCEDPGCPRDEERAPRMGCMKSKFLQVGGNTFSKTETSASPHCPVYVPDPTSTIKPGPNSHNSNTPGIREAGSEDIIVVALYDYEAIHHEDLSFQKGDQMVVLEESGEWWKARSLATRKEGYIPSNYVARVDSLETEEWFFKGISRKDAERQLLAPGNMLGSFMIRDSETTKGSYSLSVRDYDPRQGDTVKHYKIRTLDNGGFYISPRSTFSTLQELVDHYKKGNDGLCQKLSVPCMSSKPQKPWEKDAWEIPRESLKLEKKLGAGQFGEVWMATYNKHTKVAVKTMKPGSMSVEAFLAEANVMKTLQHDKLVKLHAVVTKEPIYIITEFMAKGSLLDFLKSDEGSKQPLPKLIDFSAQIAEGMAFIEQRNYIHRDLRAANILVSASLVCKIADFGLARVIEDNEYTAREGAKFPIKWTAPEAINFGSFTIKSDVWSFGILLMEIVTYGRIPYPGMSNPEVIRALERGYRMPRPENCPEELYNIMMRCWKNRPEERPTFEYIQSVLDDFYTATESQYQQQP

## CN(C(=O)CN1CCOCC1)c1ccc2sc3c(-c4cccc5c(=O)cc(N6CC7CCC(C6)O7)oc45)cccc3c2c1 [NU5455]
  inhibition at 1 µM: 18%
